Source: patent US20070218462A1, “Method of Predicting a Benefit of Antioxidant Therapy for Prevention of Cardiovascular Disease in Hiperglycemic Patients” (priority 2003, published 2007)
Entries after “also recorded” stand apart in the source; their conditions may differ.

Experiments:
[1] = tested on: patients at high risk of cardiovascular events; test: HOPE study: relative risk of primary CV outcomes with vitamin E or ramipril, by haptoglobin phenotype; assay type: in vivo, human
Description: HOPE study and patient characteristics: The Heart Outcomes Prevention Evaluation (HOPE) study was designed to test the hypotheses that two preventive intervention strategies, namely angiotensin-converting enzyme (ACE) inhibition or vitamin E, would improve morbidity and mortality in patients at high risk of cardiovascular events compared with placebo. Patients were included in the study who were considered to be at high risk of future fatal or non-fatal cardiovascular events, by virtue of their age (>55 years), existing or previous cardiovascular disease, or diabetes. Diabetics had at least one other risk factor, either known vascular disease or other factors such as cigarette smoking, high cholesterol or hypertension. Ramipril or placebo was added to concomitant medication, which included, in a substantial proportion of patients, antihypertensive drugs (excluding ACE-I), lipid-lowering agents or aspirin. The HOPE study design and protocols have been previously described in detail (see, for example, The Heart Outcomes Prevention Evaluation Study Investigators NE J Med, 2000; 342:154-60 and […] Angioten Aldost Sys 2000;1:18-20). Briefly, the study population consisted over 9,451 patients at high risk of CVD (3,654 DM). […] Patients were followed for a mean of 4.5 years. The primary study outcome was the composite of non-fatal MI, stroke or cardiovascular death. For samples from the HOPE Study, haptoglobin phenotyping was performed from 10 ul of plasma by polyacrylamide gel electrophoresis according to established methods (Hochberg I et al Atherosclerosis 2002;161:441-446). A signature banding pattern is obtained from individuals who are homozygous for the 1 allele (Hp 1-1), homozygous for the 2 allele (Hp 2-2) or who are heterozygous at the haptoglobin locus (Hp 2-1). We have established 100% concordance between the haptoglobin phenotype as determined from plasma and the haptoglobin genotype as determined from genomic DNA by the polymerase chain reaction (Koch W, et al Clin Chem 2002; 277:13635-40). An unambiguous haptoglobin phenotype was obtained on greater than 99.6% of all samples assayed. Haptoglobin phenotyping was performed with no knowledge of the patients clinical or treatment status. All analyses of the HOPE Study data were carried out using SAS 6.02. Baseline characteristics of patients according to haptoglobin were compared by t tests or χ^2 tests as appropriate. […] Patient characteristics of HOPE samples undergoing haptoglobin phenotyping: Haptoglobin phenotype was obtained on 3176 patients (1078 diabetics) from the origianl HOPE cohort for whom plasma was originally archived. These patients represented a randomly selected consecutive series of cohort according to CVD risk factors and treatment regimen is shown in Table 4 below.

[2] = tested on: unselected samples or Diabetic patients; test: CVD outcomes and Vitamin C supplementation (data not shown); assay type: in vivo, human
[3] = tested on: patients at high risk of cardiovascular events; details: daily administration of 400 IU for 4.5 years; original HOPE study report; cited from earlier work
[4] = All patients, Hp 1-1, with ramipril vs without ramipril
[5] = All patients, Hp 2-1, with ramipril vs without ramipril
[6] = All patients, Hp 2-2, with ramipril vs without ramipril
[7] = DM Patients only, Hp 1-1, with ramipril vs without ramipril
[8] = DM Patients only, Hp 2-1, with ramipril vs without ramipril
[9] = DM Patients only, Hp 2-2, with ramipril vs without ramipril
[10] = entire sample, regardless of haptoglobin type
[11] = All patients, Hp 1-1, with vitamin E vs without vitamin E
[12] = All patients, Hp 2-1, with vitamin E vs without vitamin E
[13] = All patients, Hp 2-2, with vitamin E vs without vitamin E
[14] = DM Patients only, Hp 1-1, with vitamin E vs without vitamin E
[15] = DM Patients only, Hp 2-1, with vitamin E vs without vitamin E
[16] = DM Patients only, Hp 2-2, with vitamin E vs without vitamin E

CCOC(=O)[C@H](CCc1ccccc1)N[C@@H](C)C(=O)N1[C@H](C(=O)O)C[C@@H]2CCC[C@@H]21 [Ramipril, ramipril]
Relative Risk Ratio, CV death (95% CI) [1, 4]: 0.58 (0.29-1.18)
Relative Risk Ratio, MI (95% CI) [1, 4]: 0.61 (0.35-1.06)
Relative Risk Ratio, Primary (95% CI) [1, 4]: 0.74 (0.47-1.17)
Relative Risk Ratio, Stroke (95% CI) [1, 4]: 0.91 (0.33-2.51)
Relative Risk Ratio, CV death (95% CI) [1, 5]: 1.02 (0.66-1.58)
Relative Risk Ratio, MI (95% CI) [1, 5]: 0.88 (0.64-1.20)
Relative Risk Ratio, Primary (95% CI) [1, 5]: 0.81 (0.62-1.07)
Relative Risk Ratio, Stroke (95% CI) [1, 5]: 0.68 (0.38-1.21)
Relative Risk Ratio, CV death (95% CI) [1, 6]: 0.87 (0.55-1.37)
Relative Risk Ratio, MI (95% CI) [1, 6]: 0.83 (0.59-1.17)
Relative Risk Ratio, Primary (95% CI) [1, 6]: 0.76 (0.57-1.02)
Relative Risk Ratio, Stroke (95% CI) [1, 6]: 0.53 (0.27-1.04)
Relative Risk Ratio, CV death (95% CI) [1, 7]: 0.42 (0.13-1.36)
Relative Risk Ratio, MI (95% CI) [1, 7]: 0.53 (0.19-1.46)
Relative Risk Ratio, Primary (95% CI) [1, 7]: 0.78 (0.35-1.75)
Relative Risk Ratio, Stroke (95% CI) [1, 7]: 1.29 (0.21-7.82)
Relative Risk Ratio, CV death (95% CI) [1, 8]: 0.97 (0.50-1.88)
Relative Risk Ratio, MI (95% CI) [1, 8]: 0.99 (0.81-2.13)
Relative Risk Ratio, Primary (95% CI) [1, 8]: 0.97 (0.72-1.61)
Relative Risk Ratio, Stroke (95% CI) [1, 8]: 0.58 (0.25-1.34)
Relative Risk Ratio, CV death (95% CI) [1, 9]: 0.56 (0.28-1.12)
Relative Risk Ratio, MI (95% CI) [1, 9]: 0.57 (0.38-1.12)
Relative Risk Ratio, Primary (95% CI) [1, 9]: 0.57 (0.36-0.90)
Relative Risk Ratio, Stroke (95% CI) [1, 9]: 0.42 (0.16-1.09)
benefit of ramipril supplementation for any of the primary CV outcomes [1, 10]: no significant benefit
benefit to ramipril for any of the primary CV outcomes ([1]; other haptoglobin phenotypes (Hp 1-1, Hp 1-2)): no benefit
benefit of ramipril supplementation ([1]; unselected DM group): no significant benefit

O=C1O[C@H]([C@@H](O)CO)C(O)=C1O [Vitamin C]
correlation between CVD outcomes and Vitamin C supplementation [2]: no correlation could be found

CC(=O)Oc1c(C)c(C)c2c(c1C)CC[C@@](C)(CCC[C@H](C)CCC[C@H](C)CCCC(C)C)O2 [Vitamin E, RRR-a-tocophorol acetate]
clinical benefit on cardiovascular (CV) outcomes [3]: failed to demonstrate any clinical benefit
Relative Risk Ratio, CV death (95% CI) [1, 11]: 1.10 (0.56-2.12)
Relative Risk Ratio, MI (95% CI) [1, 11]: 0.79 (0.47-1.33)
Relative Risk Ratio, Primary (95% CI) [1, 11]: 0.97 (0.63-1.50)
Relative Risk Ratio, Stroke (95% CI) [1, 11]: 1.50 (0.56-4.04)
Relative Risk Ratio, CV death (95% CI) [1, 12]: 1.07 (0.69-1.64)
Relative Risk Ratio, MI (95% CI) [1, 12]: 1.02 (0.75-1.38)
Relative Risk Ratio, Primary (95% CI) [1, 12]: 0.96 (0.74-1.25)
Relative Risk Ratio, Stroke (95% CI) [1, 12]: 0.92 (0.53-1.60)
Relative Risk Ratio, CV death (95% CI) [1, 13]: 0.75 (0.48-1.16)
Relative Risk Ratio, MI (95% CI) [1, 13]: 0.94 (0.68-1.30)
Relative Risk Ratio, Primary (95% CI) [1, 13]: 0.92 (0.69-1.22)
Relative Risk Ratio, Stroke (95% CI) [1, 13]: 0.85 (0.46-1.57)
Relative Risk Ratio, CV death (95% CI) [1, 14]: 0.64 (0.21-1.92)
Relative Risk Ratio, MI (95% CI) [1, 14]: 0.83 (0.33-2.06)
Relative Risk Ratio, Primary (95% CI) [1, 14]: 0.84 (0.40-1.79)
Relative Risk Ratio, Stroke (95% CI) [1, 14]: 2.24 (0.41-12.4)
Relative Risk Ratio, CV death (95% CI) [1, 15]: 1.0 (0.53-1.93)
Relative Risk Ratio, MI (95% CI) [1, 15]: 0.99 (0.45-2.18)
Relative Risk Ratio, Primary (95% CI) [1, 15]: 1.08 (0.72-1.61)
Relative Risk Ratio, Stroke (95% CI) [1, 15]: 0.99 (0.45-2.18)
Relative Risk Ratio, CV death (95% CI) [1, 16]: 0.45 (0.23-0.90)
Relative Risk Ratio, MI (95% CI) [1, 16]: 0.57 (0.33-0.97)
Relative Risk Ratio, Primary (95% CI) [1, 16]: 0.70 (0.45-1.10)
Relative Risk Ratio, Stroke (95% CI) [1, 16]: 1.15 (0.47-2.82)
benefit of vitamin E therapy for any of the primary CV outcomes ([1]; DM patients, other haptoglobin phenotypes (Hp 1-1 and Hp 2-1)): no significant benefit
benefit of vitamin E supplementation for any of the primary CV outcomes [1, 10]: no significant benefit
benefit of vitamin E supplementation ([1]; unselected DM group): no significant benefit; also recorded: no apparent benefit
